The values below come from ChEMBL document CHEMBL1158556, “Design of pentapeptidic BACE1 inhibitors with carboxylic acid bioisosteres at P1' and P4 positions” (Bioorg Med Chem, 2010).

The target of assay [1] is T1, Beta-secretase 1 (Homo sapiens, UniProt P56817). The experiment in a line: Inhibition of human BACE1 at 2 uM by FRET assay.
Assay [2] deals with T1, Beta-secretase 1. The assay is described as follows: Inhibition of human BACE1 at 0.2 uM by FRET assay.
Assay [3] concerns the target T1, Beta-secretase 1. The experiment in a line: Inhibition of human BACE1 by FRET assay.

T1 sequence (P56817 whole entry): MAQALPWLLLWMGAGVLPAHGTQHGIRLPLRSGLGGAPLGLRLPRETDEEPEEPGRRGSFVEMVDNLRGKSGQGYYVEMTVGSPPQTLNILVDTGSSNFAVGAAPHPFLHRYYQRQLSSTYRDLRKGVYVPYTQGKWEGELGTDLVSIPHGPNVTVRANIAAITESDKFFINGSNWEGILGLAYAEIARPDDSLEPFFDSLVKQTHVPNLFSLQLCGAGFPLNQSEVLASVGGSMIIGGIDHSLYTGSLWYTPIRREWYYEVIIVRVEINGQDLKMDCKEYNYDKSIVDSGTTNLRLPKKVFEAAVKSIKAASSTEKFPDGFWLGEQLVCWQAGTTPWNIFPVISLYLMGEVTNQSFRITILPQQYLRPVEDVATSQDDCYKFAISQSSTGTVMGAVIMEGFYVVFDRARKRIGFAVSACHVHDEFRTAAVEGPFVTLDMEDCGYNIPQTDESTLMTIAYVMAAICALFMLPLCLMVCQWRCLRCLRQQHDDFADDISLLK

Regarding `CC(C)C[C@H](NC(=O)[C@@H](NC(=O)[C@@H](N)CNC(=O)c1c[nH]cn1)C(C)C)C(=O)N[C@@H](Cc1ccccc1)[C@@H](O)C(=O)Nc1cccc(-c2nn[nH]n2)c1`, the values for the inhibition at Beta-secretase 1 [1] and against Beta-secretase 1 [2] were 87% and 50%, respectively.

On to `CC(C)C[C@H](NC(=O)[C@@H](NC(=O)[C@@H](N)CNC(=O)c1cc(O)ccc1O)C(C)C)C(=O)N[C@@H](Cc1ccccc1)[C@@H](O)C(=O)Nc1cccc(-c2nc(=S)o[nH]2)c1`, for which it took 10.6 nM to reach half-maximal inhibition on Beta-secretase 1 [3] (IC50).

Take `CC(C)[C@H](NC(=O)[C@@H](N)CNC(=O)c1[nH]c(=O)[nH]c(=O)c1F)C(=O)N[C@@H](CC1CCCCC1)C(=O)N[C@@H](Cc1ccccc1)[C@@H](O)C(=O)Nc1cccc(-c2nn[nH]n2)c1`: the inhibition (in general, the change of the read-out against control, counted positive when it falls) against Beta-secretase 1 [1] was greater than 99%.

`CC(C)C[C@H](NC(=O)[C@@H](NC(=O)[C@@H](N)CNC(=O)c1nn[nH]n1)C(C)C)C(=O)N[C@@H](Cc1ccccc1)[C@@H](O)C(=O)Nc1cccc(-c2nn[nH]n2)c1` came in with an inhibition against Beta-secretase 1 [1] greater than 99%.

As for `CC(C)C[C@H](NC(=O)[C@@H](NC(=O)[C@@H](N)CNC(=O)c1cc(O)ccc1O)C(C)C)C(=O)N[C@@H](Cc1ccccc1)[C@@H](O)C(=O)Nc1cccc(-c2noc(=S)[nH]2)c1`, the figures for the inhibition on Beta-secretase 1 [1] and on Beta-secretase 1 [2] were greater than 99% and 93%, respectively.

As to `CC(C)C[C@H](NC(=O)[C@@H](NC(=O)[C@@H](N)CNC(=O)c1cc(O)ccc1O)C(C)C)C(=O)N[C@@H](Cc1ccccc1)[C@@H](O)C(=O)Nc1cccc(-c2noc(=O)[nH]2)c1`, the inhibition is greater than 99% against Beta-secretase 1 [1] and 92% against Beta-secretase 1 [2].

Regarding `CC(C)C[C@H](NC(=O)[C@@H](NC(=O)[C@@H](N)CNC(=O)c1cc(O)ccc1O)C(C)C)C(=O)N[C@@H](Cc1ccccc1)[C@@H](O)C(=O)Nc1cccc(-c2n[nH]c(=S)n2C)c1`, the figures for the inhibition against Beta-secretase 1 [1] and against Beta-secretase 1 [2] were 94% and 64%, respectively.

As for `CC(C)C[C@H](NC(=O)[C@@H](NC(=O)[C@@H](N)CNC(=O)c1[nH]c(=O)[nH]c(=O)c1F)C(C)C)C(=O)N[C@@H](Cc1ccccc1)[C@@H](O)C(=O)Nc1cccc(-c2noc(=S)[nH]2)c1`, the inhibition was greater than 99% at Beta-secretase 1 [1] and 95% on Beta-secretase 1 [2]. The midpoint of inhibition against Beta-secretase 1 [3], the IC50, lay at 10.2 nM.

`CC(C)[C@H](NC(=O)[C@@H](N)CNC(=O)c1nc[nH]n1)C(=O)N[C@@H](CC1CCCCC1)C(=O)N[C@@H](Cc1ccccc1)[C@@H](O)C(=O)Nc1cccc(-c2nn[nH]n2)c1`: the inhibition against Beta-secretase 1 [1] came to 94%; on Beta-secretase 1 [2] it was 69%.

Consider `CC(C)[C@H](NC(=O)[C@@H](N)CNC(=O)c1c[nH]cn1)C(=O)N[C@@H](CC1CCCCC1)C(=O)N[C@@H](Cc1ccccc1)[C@@H](O)C(=O)Nc1cccc(-c2nn[nH]n2)c1`, for which the inhibition on Beta-secretase 1 [1] came out at 83%; at Beta-secretase 1 [2], 45%.

Take `CC(C)C[C@H](NC(=O)[C@@H](NC(=O)[C@@H](N)CNC(=O)c1cc(O)ccc1O)C(C)C)C(=O)N[C@@H](Cc1ccccc1)[C@@H](O)C(=O)Nc1cccc(-c2nsc(=O)[nH]2)c1`: the figures for the inhibition at Beta-secretase 1 [1] and against Beta-secretase 1 [2] were 99% and 92%, respectively.

`CC(C)C[C@H](NC(=O)[C@@H](NC(=O)[C@@H](N)CNC(=O)c1[nH]c(=O)[nH]c(=O)c1F)C(C)C)C(=O)N[C@@H](Cc1ccccc1)[C@@H](O)C(=O)Nc1cccc(-c2noc(=O)[nH]2)c1`: the inhibition on Beta-secretase 1 [1] is greater than 99%; against Beta-secretase 1 [2], 96%. Besides, it took 7.9 nM to reach half-maximal inhibition against Beta-secretase 1 [3] (IC50).

With `CC(C)C[C@H](NC(=O)[C@@H](NC(=O)[C@@H](N)CNC(=O)c1[nH]c(=O)[nH]c(=O)c1F)C(C)C)C(=O)N[C@@H](Cc1ccccc1)[C@@H](O)C(=O)Nc1cccc(-c2n[nH]c(=S)n2C)c1`, the inhibition on Beta-secretase 1 [1] was found to be 99%; at Beta-secretase 1 [2] it was 92%.

`CC(C)C[C@H](NC(=O)[C@@H](NC(=O)[C@@H](N)CNC(=O)c1[nH]c(=O)[nH]c(=O)c1F)C(C)C)C(=O)N[C@@H](Cc1ccccc1)[C@@H](O)C(=O)Nc1cccc(-c2nn[nH]n2)c1` displayed an inhibition against Beta-secretase 1 [1] greater than 99%.

For `CC(C)C[C@H](NC(=O)[C@@H](NC(=O)[C@@H](N)CNC(=O)c1[nH]c(=O)[nH]c(=O)c1F)C(C)C)C(=O)N[C@@H](Cc1ccccc1)[C@@H](O)C(=O)Nc1cccc(-c2n[nH]c(=S)o2)c1`, the inhibition against Beta-secretase 1 [1] is greater than 99%; at Beta-secretase 1 [2] it was 95%.

At Beta-secretase 1 [1], `CC(C)[C@H](NC(=O)[C@@H](N)CNC(=O)c1nn[nH]n1)C(=O)N[C@@H](CC1CCCCC1)C(=O)N[C@@H](Cc1ccccc1)[C@@H](O)C(=O)Nc1cccc(-c2nn[nH]n2)c1` yielded an inhibition greater than 99%.

With `CC(C)C[C@H](NC(=O)[C@@H](NC(=O)[C@@H](N)CNC(=O)c1nc[nH]n1)C(C)C)C(=O)N[C@@H](Cc1ccccc1)[C@@H](O)C(=O)Nc1cccc(-c2nn[nH]n2)c1`, the inhibition stood at 91% against Beta-secretase 1 [1] and 58% against Beta-secretase 1 [2].

Consider `CC(C)C[C@H](NC(=O)[C@@H](NC(=O)[C@@H](N)CNC(=O)c1cc(O)ccc1O)C(C)C)C(=O)N[C@@H](Cc1ccccc1)[C@@H](O)C(=O)Nc1cccc(-c2n[nH]c(=S)o2)c1`, for which the values for the inhibition against Beta-secretase 1 [1] and against Beta-secretase 1 [2] were 99% and 89%, respectively.

In the case of `CC(C)C[C@H](NC(=O)[C@@H](NC(=O)[C@@H](N)CNC(=O)c1cc(O)ccc1O)C(C)C)C(=O)N[C@@H](Cc1ccccc1)[C@@H](O)C(=O)Nc1cccc(-c2nc(=O)o[nH]2)c1`, the IC50 (commonly the point on the concentration scale where inhibition reaches its midpoint) on Beta-secretase 1 [3] was 10 nM.

In the case of `CC(C)C[C@H](NC(=O)[C@@H](NC(=O)[C@@H](N)CNC(=O)c1[nH]c(=O)[nH]c(=O)c1F)C(C)C)C(=O)N[C@@H](Cc1ccccc1)[C@@H](O)C(=O)Nc1cccc(-c2nsc(=O)[nH]2)c1`, the inhibition was found to be 99% at Beta-secretase 1 [1] and 93% against Beta-secretase 1 [2].
